Results as given in publication PMC12860872, “Preclinical evaluation of DOTAGA.Glu.(FAPI)2 and DO3A.Glu.(FAPI)2 as theranostics with human dosimetry extrapolation to lutetium-177 and terbium-161 analogs” (European Journal of Nuclear Medicine and Molecular Imaging, 2025).

Tests used:
[1] = system: PC3-mice; assay: Biodistribution in PC3-mice incl. blocking; format: in vivo, mouse; conditions: PC3-model
Method: Male athymic Balb/C nude mice (6 weeks/20–25 g) were implanted with PC3 cells (3.5 × 10^6/100 µL PBS) into their right shoulder to develop tumors. The animals were used for biodistribution and PET/SPECT/CT imaging studies, once tumors reached 250–300 mm^3.
All mice were euthanized with intraperitoneal injection of pentobarbital (150 mg/kg), and selected organs were dissected, weighed, and measured for radioactivity using a gamma-counter. Results are expressed as % injected activity per gram tissue (% I.A./g), presented as mean ± SD (n = 3–4).

[2] = system: FAP; design: method as in Martin et al. 2023 (15); conditions: enzymatic assay; ref Martin et al. 2023 (15); cited from earlier work
[3] = system: PREP; design: method as in Martin et al. 2023 (15); conditions: ref Martin et al. 2023 (15); cited from earlier work
[4] = system: DPP4; design: method as in Martin et al. 2023 (15); conditions: ref Martin et al. 2023 (15); cited from earlier work
[5] = system: DPP8; design: method as in Martin et al. 2023 (15); conditions: ref Martin et al. 2023 (15); cited from earlier work
[6] = system: DPP9; design: method as in Martin et al. 2023 (15); conditions: ref Martin et al. 2023 (15); cited from earlier work

tumor uptake ([1]; labeled with gallium-68)	tumor uptake ([1]; labeled with lutetium-177)	Structure (SMILES)	IC50 [2]	IC50 [3]	IC50 [4]	IC50 [5]	IC50 [6]
~ 20%	~ 16%	N#C[C@@H]1CC(F)(F)CN1C(=O)CNC(=O)c1ccnc2ccc(OCCCCNC(=O)CC[C@H](NC(=O)CCC(C(=O)O)N3CCN(CC(=O)O)CCN(CC(=O)O)CCN(CC(=O)O)CC3)C(=O)NCCCCOc3ccc4nccc(C(=O)NCC(=O)N5CC(F)(F)C[C@H]5C#N)c4c3)cc12 (stereo partly shown) [DOTAGA.Glu.(FAPI)2]	0.26 ± 0.04 nM	590 ± 100 nM	1190 ± 80 nM	29 ± 4 nM	83 ± 1.5 nM
~ 20%	~ 16%	N#C[C@@H]1CC(F)(F)CN1C(=O)CNC(=O)c1ccnc2ccc(OCCCCNC(=O)CC[C@H](NC(=O)CN3CCN(CC(=O)O)CCN(CC(=O)O)CCN(CC(=O)O)CC3)C(=O)NCCCCOc3ccc4nccc(C(=O)NCC(=O)N5CC(F)(F)C[C@H]5C#N)c4c3)cc12 [DO3A.Glu.(FAPI)2]	0.6 ± 0.04 nM	1000 ± 140 nM	540 ± 60 nM	1030 ± 180 nM	950 ± 110 nM
		N#C[C@@H]1CC(F)(F)CN1C(=O)CNC(=O)c1ccnc2ccc(OCCCCNC(=O)CC[C@H](NC(=O)CCC(C(=O)O)N3CCN(CC(=O)[O-])CCN(CC(=O)[O-])CCN(CC(=O)[O-])CC3)C(=O)NCCCCOc3ccc4nccc(C(=O)NCC(=O)N5CC(F)(F)C[C@H]5C#N)c4c3)cc12.[Lu+3] (stereo partly shown) [[^natLu]Lu-DOTAGA.Glu.(FAPi)2]	0.33 ± 0.02 nM	430 ± 160 nM	650 ± 40 nM	220 ± 20 nM	190 ± 10 nM
